Data from article PMC3820577, “A High-Throughput Screen against Pantothenate Synthetase (PanC) Identifies 3-Biphenyl-4-Cyanopyrrole-2-Carboxylic Acids as a New Class of Inhibitor with Activity against Mycobacterium tuberculosis” (PLoS ONE, 2013).
≈ marks a conversion by molar mass, not a printed value. Where a name gives a salt, the structure may show the parent alone. Read-outs that look alike come from different tables or passages of the source.

Tests used:
PanCMTB [1] = target: T1, PanCMTB (Mycobacterium tuberculosis, UniProt P9WIL5); assay: High-throughput single-timepoint fluorescence assay for PanCMTB activity (HTS and CRC); format: biochemical; conditions: for inhibition of the reaction: control inhibitor
T1 construct: 6X-Histidine (N); made in house; host or cells: E. coli BL21(ΔE3), vector pET28b+
T1 sequence (P9WIL5 whole entry, looked up): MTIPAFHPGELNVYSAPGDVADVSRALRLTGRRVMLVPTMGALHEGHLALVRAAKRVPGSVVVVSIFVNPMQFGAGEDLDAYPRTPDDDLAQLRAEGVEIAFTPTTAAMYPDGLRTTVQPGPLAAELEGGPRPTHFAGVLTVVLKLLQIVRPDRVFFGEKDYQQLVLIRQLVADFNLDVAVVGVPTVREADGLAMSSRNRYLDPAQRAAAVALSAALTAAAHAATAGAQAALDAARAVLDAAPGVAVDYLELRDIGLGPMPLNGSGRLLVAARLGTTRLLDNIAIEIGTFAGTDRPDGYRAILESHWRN
Method: The activity of recombinant PanCMTB was measured, as previously described. Briefly, compounds or carrier DMSO alone were incubated with PanCMTB, the coupling enzymes, and their reagents for five minutes. The reaction was then initiated by addition of the PanCMTB substrates, pantoate and β-alanine. The reaction was conducted in wells of a black clear-bottomed microplate containing a final volume of 40 µL per well. The final concentrations were 0.4 mM NADH, 10 mM ATP, 1 mM pantoate, 5 mM β-alanine, 1 mM phosphoenol pyruvate (PEP-K), 10 mM MgCl2, 2% DMSO, 1 µg/mL of PanC, and 18 U/mL each of myokinase, pyruvate kinase and lactate dehydrogenase in 100 mM HEPES pH 7.8. The plate was immediately transferred to a SpectraMax micro-plate reader and the rate of NADH depletion was monitored by measuring the absorbance at 340 nm every 20 s for a total of 20 min.
The kinetic NADH depletion assay was initiated as described above. After 30 minutes 10 µL of solution containing fluorescent reagents was added to each well. The final 50 µL reaction contained 12.5 U/mL of diaphorase and 5 mM resazurin. After thorough mixing, the plate was transferred to a micro-plate reader and the level of resulting NADH-dependent resorufin determined by measuring fluorescence (excitation and emission filters set at […], respectively).
HTS library sets of individual compounds were plated at 1 mM - diluted first into HEPES and finally into the assay for a final assay concentration (FAC) of 20 µM. For concentration response curves (CRCs), the compounds were plated in single wells at 10 mM and diluted 3-fold across 9 adjacent wells in a row. Serial dilutions were made in 100% DMSO to ensure accurate concentrations of compound across the series. This entire plate was then treated in the same format as the HTS library plates, for FACs ranging from 200 µM- 0.01 µM in 2% DMSO (details provided in Text S1 and shown in Figure S3).

PanCMTB [2] = target: T1, PanCMTB; assay: Low-throughput kinetic NADH depletion assay for PanCMTB, mode of inhibition; format: biochemical; conditions: for mode of inhibition / Ki: with respect to pantoate; for Ki: read-out: Ki inhibition constant; for α (parameter of mixed inhibition equation): with respect to the substrate pantoate
[3] = test system: M. tuberculosis H37Rv (RvS); assay: microbe, parasite or virus in culture; format: cell-based, Mycobacterium tuberculosis
PanC-TetONM strain = assay: microbe, parasite or virus in culture; format: cell-based, Mycobacterium tuberculosis
Vero cells = format: cell-based; conditions: African green monkey, 48 h
Method: Cytotoxicity was measured against the African green monkey adult kidney cell line (Vero). Vero cells were plated at 25,000 cells/mL in black 96-well assay plates pre-populated with compound dilutions and controls. Cells were incubated in a humidified 5% CO2 environment at 37°C for 48 h; intracellular ATP levels were measured using CellTiter-Glo®Reagent (Promega, Madison, WI). Luminescence was measured using a Victor 2 plate reader and percentage inhibition of growth calculated. Results were expressed as toxicity concentration (TC50) = concentration of compound required to inhibit growth by 50%.

HeLa cells = format: cell-based; conditions: human
PanCMTB [4] = target: T1, PanCMTB; set-up: method as in PMID 17175524; conditions: read-out: inhibition constant; cited from earlier work
[5] = Mycobacterium tuberculosis, H37RV, 144 h
[6] = Mycobacterium tuberculosis, 144 h

CCSc1c(C#N)c(-c2ccc(-c3ccccc3)cc2)c(C(=O)O)n1C [compound 1]
EC50 (PanCMTB [1]): 1800 nM | mode of inhibition (PanCMTB [2]): competitive inhibition | Ki (PanCMTB [2]): 174 nM | α (parameter of mixed inhibition equation) (PanCMTB [2]): 128 | MIC50 [3]: 115 µM (≈ 41.7 µg/mL) | MIC50 [3, 5]: 115 µM (≈ 41.7 µg/mL) | MIC50 (PanC-TetONM strain; Mycobacterium tuberculosis): 111 µM (≈ 40.2 µg/mL) | MIC50 (PanC-TetONM strain; [6]): 69 µM (≈ 25 µg/mL) | TC50 (Vero cells): 70000 nM | average TC50 (HeLa cells): 179000 nM

CCc1c(C#N)c(-c2ccc(-c3ccc(C#N)cc3)cc2)c(C(=O)O)n1C [compound 2]
EC50 (PanCMTB [1]): 4000 nM | mode of inhibition (PanCMTB [2]): competitive inhibition | Ki (PanCMTB [2]): 297 nM | α (parameter of mixed inhibition equation) (PanCMTB [2]): 78 | MIC50 [3]: 54 µM (≈ 19.2 µg/mL) | MIC50 [3, 5]: 54 µM (≈ 19.2 µg/mL) | MIC50 (PanC-TetONM strain): 24 µM (≈ 8.53 µg/mL) | MIC50 (PanC-TetONM strain; Mycobacterium tuberculosis): 53 µM (≈ 18.8 µg/mL) | MIC50 (PanC-TetONM strain; [6]): 24 µM (≈ 8.53 µg/mL) | TC50 (Vero cells): 96000 nM | average TC50 (HeLa cells): 111000 nM

CCN(CC)CCOC(=O)C(Cc1cccc2ccccc12)CC1CCCO1 (stereo not drawn) [nafronyl oxalate, reference compound]
inhibition of the reaction (PanCMTB [1]; higher of two control concentrations): ~80% | inhibition of the reaction (PanCMTB [1]; lower of two control concentrations): ~50% | Ki (PanCMTB [4]): ~75000 nM
